Consider eleven molecules from patent EP4745132A1 (Technoderma Medicines Inc., priority 2023, dated 2025).

The target in one assay is T1, NUAK2 (Homo sapiens, UniProt Q9H093).
T1 sequence (Q9H093 1-628): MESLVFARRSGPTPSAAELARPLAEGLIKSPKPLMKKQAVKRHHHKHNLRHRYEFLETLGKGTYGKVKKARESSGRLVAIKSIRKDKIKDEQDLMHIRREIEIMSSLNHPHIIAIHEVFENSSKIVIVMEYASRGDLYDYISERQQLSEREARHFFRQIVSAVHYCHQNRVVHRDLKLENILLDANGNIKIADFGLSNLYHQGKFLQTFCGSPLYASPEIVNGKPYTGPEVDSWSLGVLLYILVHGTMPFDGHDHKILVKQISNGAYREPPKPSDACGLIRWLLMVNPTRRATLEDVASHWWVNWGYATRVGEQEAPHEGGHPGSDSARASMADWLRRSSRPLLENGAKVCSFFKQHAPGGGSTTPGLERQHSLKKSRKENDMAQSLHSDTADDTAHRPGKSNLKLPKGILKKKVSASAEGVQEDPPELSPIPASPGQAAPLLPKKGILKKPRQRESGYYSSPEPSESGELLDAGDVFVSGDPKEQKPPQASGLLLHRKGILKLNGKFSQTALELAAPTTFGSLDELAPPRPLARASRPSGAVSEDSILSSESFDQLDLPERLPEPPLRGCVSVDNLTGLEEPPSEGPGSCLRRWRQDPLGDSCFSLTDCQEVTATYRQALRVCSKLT
The assay can be described thus: Enzyme activity inhibition test, kinase activity assay based on P81 filter paper binding hot-spot technique. It is filed as biochemical. The conditions noted are these: final concentration of NUAK2 50 nM; 20 µM CHKtide peptide substrate; 33P-labeled ATP; 2 hours at room temperature; read-out: IC50 (nM) of Test Compounds against NUAK2. Here is the method: (§1) Test Example: Enzyme Activity Inhibition Test of NUAK1/NUAK2 Kinase Inhibitors
(§2) The inhibitory activity of the pyrimidinamine small molecules involved in the present application against NUAK1 and NUAK2 kinases was determined using a kinase activity assay based on the P81 filter paper binding hot-spot technique (Nat Biotechnol. 2011, 29:1039). A brief description is as follows:
(§3) The assay buffer system contained 20 mM Hepes (pH 7.5), 10 mM MgCl2, 1 mM EGTA, 0.01% Brij35 (L23 polyoxyethylene lauryl ether), 0.02 mg/mL BSA (bovine serum albumin), 0.1 mM Na3VO4, 2 mM DTT, and 1% DMSO.
(§4) • 1. A 20 µM substrate solution was prepared with freshly prepared test buffer and CHKtide peptide fragments (Sanchez Y. Science. 1997, 277: 1497-1501) were used as a substrate. • 2. Kinases were added and mixed gently (a final concentration of NUAK1 was 10 nM; and a final concentration of NUAK2 was 50 nM). • 3. Test compounds dissolved in 100% DMSO were each added to the above kinase reaction mixture solution via Acoustic Droplet Ejection (Echo550; nanoliter) and the mixture was incubated for 5 minutes at room temperature. • 4. ^33P-labeled ATP (a ratio of unlabeled ATP to labeled ATP was 25:1 or 2.5:1) was added. • 5. The mixture was incubated for 2 hours at room temperature. • 6. Kinase activity was tested using the P81 filter paper combined with hotspot technology.
(§5) The IC50 values of the test compounds against NUAK1/NUAK2 were calculated according to the above test. For specific results, see Table 1.
(§6) The IC50 values were calculated by using a formula derived from sigmoidal dose-response curve (variable slope): Y = Bottom + (Top−Bottom)/(1+10^(∧)((LogEC50−X)*Slope, [formula] where X is the logarithm of compound concentration, Y is the response (inhibition rate of kinase activity), and Y rises from bottom to top along the sigmoidal curve as the concentration increases. Table 1: IC50 (nM) of Test Compounds of the Present Application against NUAK1/NUAK2

The target of another assay is T2, NUAK1 (Homo sapiens, UniProt O60285).
T2 sequence (O60285 1-661): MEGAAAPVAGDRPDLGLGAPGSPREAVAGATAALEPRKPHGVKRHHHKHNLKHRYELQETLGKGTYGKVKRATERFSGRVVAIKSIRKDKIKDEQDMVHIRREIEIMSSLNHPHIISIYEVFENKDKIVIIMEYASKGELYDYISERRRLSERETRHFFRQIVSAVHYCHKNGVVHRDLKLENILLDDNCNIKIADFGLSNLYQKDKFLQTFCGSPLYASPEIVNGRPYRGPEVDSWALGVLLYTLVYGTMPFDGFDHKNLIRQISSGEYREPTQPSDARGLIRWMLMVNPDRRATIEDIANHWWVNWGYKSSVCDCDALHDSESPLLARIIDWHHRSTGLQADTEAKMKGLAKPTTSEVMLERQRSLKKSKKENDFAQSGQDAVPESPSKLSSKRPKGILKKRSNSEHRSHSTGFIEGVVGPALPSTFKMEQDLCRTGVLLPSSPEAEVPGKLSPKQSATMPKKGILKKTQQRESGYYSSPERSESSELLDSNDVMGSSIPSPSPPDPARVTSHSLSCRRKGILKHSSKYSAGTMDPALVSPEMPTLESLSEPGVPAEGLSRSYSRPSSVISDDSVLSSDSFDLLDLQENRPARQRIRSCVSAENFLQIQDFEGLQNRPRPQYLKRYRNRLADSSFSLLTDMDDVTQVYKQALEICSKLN
The description is as above. It counts as biochemical. The following applies: final concentration of NUAK1 10 nM; 20 µM CHKtide peptide substrate; 33P-labeled ATP; 2 hours at room temperature; read-out: IC50 (nM) of Test Compounds against NUAK1. Here is the method:
as §1, §2, §3, §4, §5, §6

As usually defined, the IC50 is the concentration that gives 50% inhibition.

As for `CC1(NC(=O)[C@@H]2CC2(F)F)CCN(c2nc(Nc3cnn(C4CCNCC4)c3)ncc2Cl)CC1`, the IC50 turned out to be 2.76 nM on NUAK2 and 1.24 nM at NUAK1.

On to `CC1(NS(=O)(=O)C2CC2)CCN(c2ccnc(Nc3cnn(C4CCNCC4)c3)n2)CC1` [TDM-181137], for which the values for the IC50 at NUAK2 and at NUAK1 were 29 nM and 71 nM, respectively.

Take `CC1(NC(=O)[C@@H]2CC2(F)F)CCN(c2ccnc(Nc3cnn(C4CCNCC4)c3)n2)CC1` [TDM-181163]: the half-inhibitory concentration (IC50) on NUAK2 is 15 nM; at NUAK1, 30 nM.

Consider `CN1CCN(c2ccc(Nc3nccc(N4CCC(C)(NC(=O)[C@@H]5CC5(F)F)CC4)n3)cc2)CC1` [TDM-181164, (S)-2,2-Difluoro-N-(4-methyl-1-(2-((4-(4-methylpiperazin-1-yl)phenyl)amino)pyrimidin-4-yl)piperidin-4-yl)cyclopropane-1-carboxamide], for which the results for the concentration for half-maximal inhibition (IC50) at NUAK2 and at NUAK1 were 15 nM and 6 nM, respectively.

With `CN1CCN(c2ccc(Nc3nccc(N4CCC(C)(NS(=O)(=O)C5CC5)CC4)n3)cc2)CC1` [TDM-181165, N-(4-methyl-1-(2-((4-(4-methylpiperazin-1-yl)phenyl)amino)pyrimidin-4-yl)piperidin-4-yl)cyclopropanesulfonamide], the IC50 on NUAK2 stood at 72 nM; on NUAK1 it was 39 nM.

Turning to `CN1CCN(c2ccc(Nc3ncc(Cl)c(N4CCC(C)(NS(=O)(=O)C5CC5)CC4)n3)cc2)CC1` [TDM-181173, N-(1-(5-chloro-2-((4-(4-methylpiperazin-1-yl)phenyl)amino)pyrimidin-4-yl)-4-methylpiperidin-4-yl)cyclopropanesulfonamide], the results for the concentration for half-maximal inhibition (IC50) at NUAK2 and on NUAK1 were 3 nM and 1 nM, respectively.

For the molecule `CN1CCN(c2ccc(Nc3ncc(Cl)c(N4CCC(C)(NC(=O)[C@@H]5CC5(F)F)CC4)n3)cc2)CC1` [TDM-181174, (S)-N-(1-(5-chloro-2-((4-(4-methylpiperazin-1-yl)phenyl)amino)pyrimidin-4-yl)-4-methylpiperidin-4-yl)-2,2-difluorocyclopropanecarboxamide], the half-inhibitory concentration (IC50) is 1.44 nM on NUAK2 and 0.46 nM on NUAK1.

Turning to `COc1cc(N2CCN(C)CC2)ccc1Nc1ncc(Cl)c(N2CCC(C)(NS(=O)(=O)C3CC3)CC2)n1` [TDM-181175, N-(1-(5-chloro-2-((2-methoxy-4-(4-methylpiperazin-1-yl)phenyl)amino)pyrimidin-4-yl)4-methylpiperidin-4-yl)cyclopropanesulfonamide], the results for the IC50 at NUAK2 and at NUAK1 were 13 nM and 20 nM, respectively.

Consider `CN1CCN(c2ccc(Nc3ncc(Cl)c(CN4CCC(C)(NC(=O)[C@@H]5CC5(F)F)CC4)n3)cc2)CC1` [TDM-181182, (S)-N-(1-((5-chloro-2-((4-(4-methylpiperazin-1-yl)phenyl)amino)pyrimidin-4-yl)methyl)-4-methylpiperidin-4-yl)-2,2-difluorocyclopropane-1-carboxamide], for which, at NUAK1, the IC50 came out at 679 nM.

As to `CN1CCN(c2ccc(Nc3ncc(Cl)c(CN4CCC(C)(NS(=O)(=O)C5CC5)CC4)n3)cc2)CC1` [TDM-181183, N-(1-((5-chloro-2-((4-(4-methylpiperazin-1-yl)phenyl)amino)pyrimidin-4-yl)methyl)-4-methylpiperidin-4-yl)cyclopropanesulfonamide], at NUAK1, the 50% inhibitory concentration (IC50) turned out to be 69 nM.

Take `CC1(NC(=O)[C@@H]2CC2(F)F)CCN(Cc2nc(Nc3cnn(C4CCNCC4)c3)ncc2Cl)CC1` [TDM-181186, (S)-N-(1-((5-chloro-2-((1-(piperidin-4-yl)-1H-pyrazol-4-yl)amino)pyrimidin-4-yl)methyl)-4-methylpiperidin-4-yl)-2,2-difluorocyclopropane-1-carboxamide]: the IC50 at NUAK1 turned out to be 959 nM.
